Assay results taken from patent US8716528B2, “Aryloxy amine compounds and their use as sodium channel modulators” (Howard Florey Institute, priority 2007, dated 2014).
Several values for one entry are separate records, joined by “and”; a condition that tells them apart may be missing. Identical values can stand only once. Entries after “also recorded” stand apart in the source; their conditions may differ. Marks after values point to notes of the source that are not given here.

Legend:
[1] = target: Sodium Channel Binding Site 2 in Rat Brain Membranes; details: 3H-batrachotoxinin 5 nM, 37° C. 60 minutes, read-out: IC50 (inhibition of specific binding of 3H-batrachotoxinin)
[2] = system: Male Sprague-Dawley rats, L5 nerve ligated and cut; assay: Rat L5 nerve cut model of neuropathic pain, Von Frey filament withdrawal threshold (allodynia); format: in vivo; details: for grams of force needed to withdraw left limb: left hind paw, nerve cut; for grams of force needed to withdraw left limb / grams of force needed to withdraw right limb: individual rats #17-#20; for effect on allodynia: left paw, 4 rats; for grams of force needed to withdraw right limb: right hind paw, nerve intact
Method: The following method is based on the method published by Chaplan et al, 1994. Male Sprague-Dawley rats from one litter were weaned when 19 days old and acclimatized for the next two days in the Animal House where the experiment was to be carried out. From days 21 to 25, rats were tested using a set of Von Frey monofilaments to test the mechanical withdrawal threshold of the hindpaws. The monofilaments were applied in increasing force until the rat withdrew the hind paw being tested. […] Rats were anaesthetized with a halothane/oxygen (5:95) gas mixture and a dorsal midline incision was made on the rat's lower back to expose the left lumbar region either side of the hip. Bone was clipped away to expose the L4 and L5 nerves distal to their emergence from the intervertebral foramina. The L5 nerve was then isolated using a glass hook, ligated and cut on the peripheral side of the ligation. The incision was then closed with suture threads and the anaesthetic gas discontinued. The next day rats underwent testing with the graded Von Frey filaments to the hind paws to determine if allodynia was present in the left paw as compared to the right hind paw. Testing was repeated on these rats until they were 28 days old. […] Rats were then tested with graded Von Frey filaments at 45 minutes and 90 minutes after injection in order to determine if allodynia had been blocked.

[3] = system: Male Hooded Wistar rats, spinal cord injury (SCI); assay: Reversible spinal cord injury model: BBB open-field locomotor score; format: in vivo, rat; details: i.p. 3 h after injury and twice daily, 15 days; versus vehicle treated controls
Method: (§1) Male Hooded Wistar rats were anesthetized (2% isoflurane/98% oxygen), and laminectomy performed at spinal level T12. An inflatable balloon catheter was inserted rostral, underneath the vertebra, to T10 and inflated for 5 minutes, causing reversible paraplegia (Feldblum, et al., 2000). […] Rats had almost complete functional recovery by 15 d. Compound 1 (15 nmol/g and 60 nmol/g), mexiletine (60 nmol/g) and vehicle (5 ml/kg) were administered i.p, at 3 h after the injury and twice daily thereafter, until killed. Behavioural tests were conducted every 3 days. At 15 d post-injury, rats were anesthetized and transcardially perfused, to fix the spinal cords. Sections were cut and processed to examine the size of the cyst and modulatory effects of treatments or control on lesion formation.
BBB scale: Effects of Compound 1 and mexiletine treatment on the time course of functional recovery, following SCI, assessed with the BBB open-field locomotor score. […] Each rat acted as its own control, and results after SCI compared with pre-injury scores (0 h after SCI). Data are mean±SEM. ANOVA followed by Bonferroni post-test: [F(24,273)=10.57, P<0.0001], *P<0.05, **P<0.01, ***P<0.001 Compound 1 (60 nmol/g) versus the SCI+saline controls at the same time; †P<0.05 Compound 1 (15 nmol/g) or mexiletine (60 nmol/g) versus SCI+saline controls at the same time.

[4] = system: Male Hooded Wistar rats, spinal cord injury (SCI); assay: Reversible spinal cord injury model: horizontal ladder test; format: in vivo, rat; details: versus SCI+saline controls at the same time
Method: as §1
Ladder test: In the horizontal ladder test, rats are placed onto a beam which is randomly missing rungs, this prevents rats from adapting and compensating for any deficits following SCI. […] The results are depicted in FIG. 4. […] Data is expressed as the percentage of foot misplacements made of the total number of steps taken, using a combined score for both hindlimbs. […] Each rat acted as its own control, and results compared with pre-injury scores (0 h after SCI). […]

[5] = system: Male Hooded Wistar rats, spinal cord injury (SCI); assay: Reversible spinal cord injury model: ledged beam task; format: in vivo, rat; details: for use of the support ledge, ledged beam task: after SCI, versus saline-treated controls
Method: as §1
Ledged beam: Effects of Compound 1 and mexiletine, and SCI+saline controls on recovery of function following spinal cord compression injury as assessed by the number of steps using the support ledge on the ledged beam task. The results are depicted in FIG. 5. Sham-SCI rats walked the length of the ledged beam with approximately 10% of steps made on the supporting ledge. […] Data is expressed as ledge use/errors made as a percentage of total steps taken with both hindlimbs after SCI. Each rat acted as its own control, and results compared with pre-injury scores (0 h after SCI). ANOVA followed by Bonferroni post-test: [F(24,273)=5.12, P<0.0001], *P<0.05, **P<0.01, ***P<0.001 Compound 1 (60 nmol/g) versus the SCI+saline controls at the same time; †P<0.05 Compound 1 (15 nmol/g) versus SCI+saline controls at the same time. […] Data are mean±SEM. n=6-11 rats in each group.

[6] = system: Male Hooded Wistar rats, spinal cord injury (SCI); assay: Reversible spinal cord injury model: volume of damage from H & E stained sections; format: in vivo, rat; details: equivalent mole dose, compared to SCI+saline, n=4
Method: as §1
(§2) Volume of damage: Effects of treatment were measured first from H & E stained sections. […] Data are mean±SEM of measurements from n=4 rats per treatment group. Secondly, the sparing of spinal cord tissue by Compound 1 and mexiletine treatment was assessed by more detailed histological staining techniques.

[7] = system: Male Hooded Wistar rats, spinal cord injury (SCI); assay: Reversible spinal cord injury model: percentage of white and gray matter spared at the epicentre (H & E, Luxol Fast blue, cresyl violet); format: in vivo, rat
Method: as §1, §2

[8] = system: Male Hooded Wistar rats, spinal cord injury (SCI); assay: Reversible spinal cord injury model: neuronal cell body counts by NeuN immunostaining; format: in vivo, rat; details: for loss of white matter and gray matter (rostro-caudal serial sections, neuronal cell body counts): after SCI, versus saline treatment
Method: as §1, §2

[9] = +0.5 mm from epicentre, 60 nmol/g
[10] = +1 mm from epicentre, 60 nmol/g
[11] = +1.5 mm from epicentre, 60 nmol/g
[12] = +2 mm from epicentre, 60 nmol/g
[13] = +2.5 mm from epicentre, 60 nmol/g
[14] = −0.5 mm from epicentre, 60 nmol/g
[15] = −1 mm from epicentre, 60 nmol/g
[16] = −1.5 mm from epicentre, 60 nmol/g
[17] = −2 mm from epicentre, 60 nmol/g
[18] = −2.5 mm from epicentre, 60 nmol/g

Cc1cccc(C)c1OCCCNCc1ccc(N2N=CC(C)C2=O)cc1 (stereo not shown) [Comparative A, reference compound]
IC50 [1]: 11000 nM

Cc1cccc(C)c1OCC(C)NCc1cc(C(C)(C)C)c(O)c(C(C)(C)C)c1 (stereo not shown) [Compound 1]
IC50 [1]: 134 nM | grams of force needed to withdraw left limb ([2]; 45 min post i.p. 70 nmol/g): 11.44 g and 17.8 g (3×) | grams of force needed to withdraw left limb ([2]; 90 min post i.p. 70 nmol/g): 3.7 g and 10.9 g and 17.8 g (2×) | effect on allodynia ([2]; 45 minutes after i.p. 70 nmol/g): allodynia had been completely eliminated in 3 of the rats | effect on allodynia ([2]; 90 minutes after i.p. 70 nmol/g): allodynia had still been eliminated in 2 rats | grams of force needed to withdraw right limb ([2]; 45 min post i.p. 70 nmol/g): 17.8 g | grams of force needed to withdraw right limb ([2]; 90 min post i.p. 70 nmol/g): 17.8 g | generalized anaesthesia (response of right hindpaw to filaments) ([2]; right hindpaw, 45 or 90 minutes after injection): did not cause a generalized anaesthesia | rate of functional recovery following SCI, BBB open-field locomotor score [3]: significantly increased the rate of recovery | number of hind-limb foot misplacements, horizontal ladder test [4]: decreased the number of hind-limb foot misplacements | use of the support ledge, ledged beam task [5]: significantly reduced | volume of damage (H & E stained sections) [6]: reduced damage compared to SCI+saline | GRAY MATTER spared, % MEAN ([7]; 15 nmol/g): 80* % | TOTAL TISSUE spared, % MEAN ([7]; 15 nmol/g): 74.3* % | WHITE MATTER spared, % MEAN ([7]; 15 nmol/g): 63.6* % | GRAY MATTER spared, % MEAN ([7]; 60 nmol/g): 88.9* % | TOTAL TISSUE spared, % MEAN ([7]; 60 nmol/g): 83.9* % | WHITE MATTER spared, % MEAN ([7]; 60 nmol/g): 81.1* % | No. of motor neurons Per sq mm, Mean ([8]; 0.0 mm (epicentre), 15 nmol/g): 9* Per sq mm | No. of motor neurons Per sq mm, Mean ([8]; 0.0 mm (epicentre), 60 nmol/g): 15* Per sq mm | No. of motor neurons Per sq mm, Mean ([8]; +0.5 mm from epicentre, 15 nmol/g): 10* Per sq mm | No. of motor neurons Per sq mm, Mean [8, 9]: 16* Per sq mm | No. of motor neurons Per sq mm, Mean ([8]; +1 mm from epicentre, 15 nmol/g): 14* Per sq mm | No. of motor neurons Per sq mm, Mean [8, 10]: 22* Per sq mm | No. of motor neurons Per sq mm, Mean ([8]; +1.5 mm from epicentre, 15 nmol/g): 25* Per sq mm | No. of motor neurons Per sq mm, Mean [8, 11]: 29* Per sq mm | No. of motor neurons Per sq mm, Mean ([8]; +2 mm from epicentre, 15 nmol/g): 28 Per sq mm | No. of motor neurons Per sq mm, Mean [8, 12]: 28 Per sq mm | No. of motor neurons Per sq mm, Mean ([8]; +2.5 mm from epicentre, 15 nmol/g): 29 Per sq mm | No. of motor neurons Per sq mm, Mean [8, 13]: 30 Per sq mm | loss of white matter and gray matter (rostro-caudal serial sections, neuronal cell body counts) [8]: reduced loss of both white matter and gray matter; also recorded: more effective than Mexiletine | No. of motor neurons Per sq mm, Mean ([8]; −0.5 mm from epicentre, 15 nmol/g): 11* Per sq mm | No. of motor neurons Per sq mm, Mean [8, 14]: 17* Per sq mm | No. of motor neurons Per sq mm, Mean ([8]; −1 mm from epicentre, 15 nmol/g): 18* Per sq mm | No. of motor neurons Per sq mm, Mean [8, 15]: 23* Per sq mm | No. of motor neurons Per sq mm, Mean ([8]; −1.5 mm from epicentre, 15 nmol/g): 26 Per sq mm | No. of motor neurons Per sq mm, Mean [8, 16]: 26 Per sq mm | No. of motor neurons Per sq mm, Mean ([8]; −2 mm from epicentre, 15 nmol/g): 29 Per sq mm | No. of motor neurons Per sq mm, Mean [8, 17]: 30 Per sq mm | No. of motor neurons Per sq mm, Mean ([8]; −2.5 mm from epicentre, 15 nmol/g): 27 Per sq mm | No. of motor neurons Per sq mm, Mean [8, 18]: 30 Per sq mm

CC(C)(C)c1cc(CNCCCOc2c(Cl)cccc2Cl)cc(C(C)(C)C)c1O [Compound 2]
IC50 [1]: 105 nM

COc1cccc(OC)c1OCCCNCc1cc(C(C)(C)C)c(O)c(C(C)(C)C)c1 [Compound 3]
IC50 [1]: 107 nM

CC(C)c1cccc(C(C)C)c1OCCCNCc1cc(C(C)(C)C)c(O)c(C(C)(C)C)c1 [Compound 4]
IC50 [1]: 90 nM

CC(C)c1cncc(C(C)C)c1OCCCNCc1cc(C(C)(C)C)c(O)c(C(C)(C)C)c1 [Compound 5]
IC50 [1]: 380 nM

CC(C)(C)c1cc(CNCCCOc2ccccc2)cc(C(C)(C)C)c1O [Compound 6]
IC50 [1]: 236 nM

CC(C)(C)c1cc(CNCCCOc2ccncc2)cc(C(C)(C)C)c1O [Compound 7]
IC50 [1]: 870 nM

Cc1cccc(C)c1OCCCNCc1cc(C(C)(C)C)c(O)c(C(C)(C)C)c1 [Compound 8]
IC50 [1]: 179 nM

Cc1cccc(C)c1OCC(C)N (stereo not shown) [Mexiletine, mexiletine, reference compound]
IC50 [1]: 11000 nM | rate of functional recovery following SCI, BBB open-field locomotor score [3]: significantly increased the rate of recovery | number of hind-limb foot misplacements, horizontal ladder test [4]: decreased the number of hind-limb foot misplacements | ledge use, statistical difference from SCI+saline ([5]; 60 nmol/g, Bonferroni post-test): no significant difference from SCI+saline at any time | use of the support ledge, ledged beam task [5]: significantly reduced | volume of damage (H & E stained sections) [6]: reduced damage compared to SCI+saline | GRAY MATTER spared, % MEAN ([7]; 60 nmol/g): 77.9* % | TOTAL TISSUE spared, % MEAN ([7]; 60 nmol/g): 70.5* % | WHITE MATTER spared, % MEAN ([7]; 60 nmol/g): 66.3* % | No. of motor neurons Per sq mm, Mean ([8]; 0.0 mm (epicentre), 60 nmol/g): 7* Per sq mm | No. of motor neurons Per sq mm, Mean [8, 9]: 10* Per sq mm | No. of motor neurons Per sq mm, Mean [8, 10]: 17* Per sq mm | No. of motor neurons Per sq mm, Mean [8, 11]: 24* Per sq mm | No. of motor neurons Per sq mm, Mean [8, 12]: 30 Per sq mm | No. of motor neurons Per sq mm, Mean [8, 13]: 27 Per sq mm | loss of white matter and gray matter (rostro-caudal serial sections, neuronal cell body counts) [8]: reduced loss of both white matter and gray matter | No. of motor neurons Per sq mm, Mean [8, 14]: 11* Per sq mm | No. of motor neurons Per sq mm, Mean [8, 15]: 17* Per sq mm | No. of motor neurons Per sq mm, Mean [8, 16]: 26 Per sq mm | No. of motor neurons Per sq mm, Mean [8, 17]: 33 Per sq mm | No. of motor neurons Per sq mm, Mean [8, 18]: 31 Per sq mm
